Each structure is given as a SMILES string. Structures can show the parent of a compound that is named as a salt.

One experiment deals with rat Fatty Acid Amide Hydrolase (FAAH) (Rattus norvegicus (Rat), UniProt P97612). As to the kind of experiment: FAAH in vitro fluorescence assay (AAMCA hydrolysis), rat enzyme. In kind it is biochemical. Conditions: rat FAAH; read-out: rFAAH IC50. As to the method: Material and Reagents: All reagents were purchased from Sigma-Aldrich unless specified. […] Chaperone protein groEL-groES in pGRO7 plasmid (Takara Bio Inc, Japan) was co-expressed with Fatty Acid Amide Hydrolase (FAAH) to improve solubility of the protein expressed in E coli. […] Briefly, the bacterial cultures in Luria Broth (2 L) were induced with arabinose (2 mM) and Isopropyl (β-D-1-thiogalactopyranoside, IPTG (1 mM), for 20 h at room temperature. The cultures were centrifuged at 1200×g for 10 min and the cell pellet was resuspended in 100 mL buffer containing of 20 mM NaPi (pH 7.4), 100 mM NaCl, Benzonase (500u), Aprotinin (1 μg/mL) and Leupeptin (1 μg/mL). Cells were lyzed by sonication (Amp 20%, Pulse 15 s×15, on ice) and the cell debris removed by centrifugation at 5000×g for 20 min. The supernatant was enriched via ultracentrifugation at 100,000×g for 1 h and the cell pellet was resuspended in 16 mL buffer containing 20 mM NaPi (pH 7.8), 500 mM NaCl, 1% Triton X-100. The resuspended cell extract was subjected to ultra-centrifugation at 100,000×g for 1 h and the enriched supernatant was used in the in vitro assay. All protein extraction steps were carried out on ice or at 4° C.
Chain of rat Fatty Acid Amide Hydrolase (FAAH) (P97612 30-579): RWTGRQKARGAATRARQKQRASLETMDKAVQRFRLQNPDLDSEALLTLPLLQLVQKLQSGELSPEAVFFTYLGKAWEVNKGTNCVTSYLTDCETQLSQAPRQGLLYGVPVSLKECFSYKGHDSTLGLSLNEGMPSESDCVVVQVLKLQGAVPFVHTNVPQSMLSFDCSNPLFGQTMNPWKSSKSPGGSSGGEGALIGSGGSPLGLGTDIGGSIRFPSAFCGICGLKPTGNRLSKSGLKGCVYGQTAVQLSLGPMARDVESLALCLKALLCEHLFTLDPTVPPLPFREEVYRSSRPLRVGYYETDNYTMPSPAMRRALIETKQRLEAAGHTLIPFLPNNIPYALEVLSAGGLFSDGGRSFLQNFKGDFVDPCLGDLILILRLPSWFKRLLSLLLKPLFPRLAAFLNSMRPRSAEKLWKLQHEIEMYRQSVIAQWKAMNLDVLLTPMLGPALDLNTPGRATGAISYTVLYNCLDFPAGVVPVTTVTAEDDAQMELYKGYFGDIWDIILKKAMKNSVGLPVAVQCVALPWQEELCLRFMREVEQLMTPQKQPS
The assay was carried out in 200 μL volume in a 96-well black polystyrene plate (Greiner Bio-one, Germany). Each reaction consisted of human Fatty Acid Amide Hydrolase (FAAH) protein and 10 μM AAMCA in assay buffer containing 50 mM HEPES, 1 mM EDTA and 0.1% BSA, pH 7.4. The reaction was incubated with 2 μL of varying concentrations of inhibitor in DMSO (final concentration of DMSO 1%) with shaking for 1 min and monitored for increase in fluorescence in kinetic mode for 50 min. […] Rate of reaction as a function of the concentration of the inhibitor was used to determine the IC50 of the inhibitors. Data was analyzed using GraphPad Prism 5 (GraphPad Software Inc., San Diego, Calif.). The activity of the compounds for rat Fatty Acid Amide Hydrolase (FAAH) was evaluated as described above with rat Fatty Acid Amide Hydrolase (FAAH) protein and 10 μM AAMCA substrate.
By IC50 is commonly meant the concentration that inhibits the measured activity by half. `O=C(NC1CCC(=Cc2cccc(Oc3ccc(C(F)(F)F)cn3)c2)CC1)c1cnc2[nH]ccc2c1` (single isomer, unassigned; (+)) [Example 20.A-13, (+)-N-[4-[[3-[[5-(trifluoromethyl)-2-pyridyl]oxy]phenyl]methylene]cyclohexyl]-1H-pyrrolo[2,3-b]pyridine-5-carboxamide]: the IC50 came out at 407 nM.

The experiment is the same for the next values; noted with them: read-out: rFAAH % inhibition at 100 nM; rat FAAH; 100 nM (tier I).
A word on the inhibition: it is how much of the control response was suppressed. With `O=C(NC1CCC(=Cc2cccc(Oc3ccc(C(F)(F)F)cn3)c2)CC1)c1nc2cccnc2s1` [Example 2.D-3, N-[4-[[3-[[5-(Trifluoromethyl)-2-pyridyl]oxy]phenyl]methylene]cyclohexyl]thiazolo[5,4-b]pyridine-2-carboxamide], the inhibition at 0.1 µM was determined as 38%.

Take `O=C(NC1CCC(=Cc2cccc(Oc3ccc(C(F)(F)F)cn3)c2)CC1)c1ccc(-n2ccc(C(=O)O)n2)nc1` (stereo not shown) [Example 8.A-5, 1-[5-[[4-[[3-[[5-(Trifluoromethyl)-2-pyridyl]oxy]phenyl]methylene]cyclohexyl]carbamoyl]-2-pyridyl]pyrazole-3-carboxylic acid]: the inhibition at 0.1 µM came out at 55%.

The experiment is the same for the next values; noted with them: read-out: rFAAH % inhibition at 10 uM; rat FAAH; 10 uM.
For `O=C(NC1CCC(=Cc2cccc(Oc3ccc(C(F)(F)F)cn3)c2)CC1)c1cccnc1` (single isomer, unassigned; (+)) [Example 20.A-1, (+)-N-[4-[[3-[[5-(Trifluoromethyl)-2-pyridyl]oxy]phenyl]methylene]cyclohexyl]pyridine-3-carboxamide], the inhibition at 10 µM came out at 60%.

Turning to `Nc1ccc(C(=O)NC2CCC(=Cc3cccc(Oc4ccc(C(F)(F)F)cn4)c3)CC2)cn1` (single isomer, unassigned; (+)) [Example 20.A-3, (+)-6-Amino-N-[4-[[3-[[5-(trifluoromethyl)-2-pyridyl]oxy]phenyl]methylene]cyclohexyl]pyridine-3-carboxamide], the inhibition at 10 µM came out at 70%.

Consider `O=C(NC1CCC(=Cc2cccc(Oc3ccc(C(F)(F)F)cn3)c2)CC1)c1c[nH]nc1C(F)(F)F` (single isomer, unassigned; (+)) [Example 20.A-7, (+)-3-(Trifluoromethyl)-N-[4-[[3-[[5-(trifluoromethyl)-2-pyridyl]oxy]phenyl]methylene]cyclohexyl]-1H-pyrazole-4-carboxamide], for which the inhibition at 10 µM is 85%.

As to `O=C(NC1CCC(=Cc2cccc(Oc3ccc(C(F)(F)F)cn3)c2)CC1)c1cn[nH]c1` (single isomer, unassigned; (+)) [Example 20.A-11, (+)-N-[4-[[3-[[5-(trifluoromethyl)-2-pyridyl]oxy]phenyl]methylene]cyclohexyl]-1H-pyrazole-4-carboxamide], the inhibition at 10 µM was 86%.

The target of another experiment is human Fatty Acid Amide Hydrolase (FAAH) (Homo sapiens (Human), UniProt O00519). As to the kind of experiment: biochemical. Conditions: hFAAH IC50.
Chain of human Fatty Acid Amide Hydrolase (FAAH) (O00519 30-579): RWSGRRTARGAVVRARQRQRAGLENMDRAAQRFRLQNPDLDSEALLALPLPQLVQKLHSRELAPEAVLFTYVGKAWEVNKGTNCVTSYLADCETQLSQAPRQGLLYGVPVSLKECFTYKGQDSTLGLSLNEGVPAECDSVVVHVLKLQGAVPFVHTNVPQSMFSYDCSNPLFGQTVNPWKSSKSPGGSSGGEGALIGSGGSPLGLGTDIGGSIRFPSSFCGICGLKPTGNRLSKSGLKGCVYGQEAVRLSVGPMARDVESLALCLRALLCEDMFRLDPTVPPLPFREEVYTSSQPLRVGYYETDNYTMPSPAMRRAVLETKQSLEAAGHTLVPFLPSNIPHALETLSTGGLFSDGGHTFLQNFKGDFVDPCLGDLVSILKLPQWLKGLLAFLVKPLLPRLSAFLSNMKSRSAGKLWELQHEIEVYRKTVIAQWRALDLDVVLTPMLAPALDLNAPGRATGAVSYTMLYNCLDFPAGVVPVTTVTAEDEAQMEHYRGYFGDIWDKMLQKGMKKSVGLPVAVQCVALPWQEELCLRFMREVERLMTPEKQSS
Regarding `O=C(NC1CCC(=Cc2cccc(Oc3ccc(C(F)(F)F)cn3)c2)CC1)c1cccnc1` (single isomer, unassigned; (-)) [Example 20.A-2, (−)-N-[4-[[3-[[5-(Trifluoromethyl)-2-pyridyl]oxy]phenyl]methylene]cyclohexyl]pyridine-3-carboxamide], it took 0.7 nM to reach half-maximal inhibition (IC50).

Regarding `O=C(Nc1cccnc1)C1CCC(=Cc2cccc(Oc3ccc(C(F)(F)F)cn3)c2)CC1` (stereo not shown) [Example 1.2, N-(3-Pyridyl)-4-[[3-[[5-(trifluoromethyl)-2-pyridyl]oxy]phenyl]-methylene]cyclohexanecarboxamide hydrochloride], the IC50 was 17 nM.

`O=C(NC1CCC(=Cc2cccc(Oc3ccc(C(F)(F)F)cn3)c2)CC1)c1cccnc1` (stereo not shown) [Example 2.1, N-[4-[[3-[[5-(Trifluoromethyl)-2-pyridyl]oxy]phenyl]methylene]cyclohexyl]pyridine-3-carboxamide]: the half-maximal inhibitory concentration (IC50) stood at 2 nM.

The experiment is the same for the next values; noted with them: human FAAH; read-out: hFAAH IC50.
Take `Cc1cc(C(=O)NC2CCC(=Cc3cccc(Oc4ccc(C(F)(F)F)cn4)c3)CC2)cnc1N` (single isomer, unassigned; (+)) [Example 20.A-5, (+)-6-Amino-5-methyl-N-[4-[[3-[[5-(trifluoromethyl)-2-pyridyl]oxy]phenyl]methylene]cyclohexyl]pyridine-3-carboxamide]: the IC50 is 247 nM.

With `O=C(NC1CCC(=Cc2cccc(Oc3ccc(C(F)(F)F)cn3)c2)CC1)c1cn[nH]c1` (single isomer, unassigned; (+)) [Example 20.A-11, (+)-N-[4-[[3-[[5-(trifluoromethyl)-2-pyridyl]oxy]phenyl]methylene]cyclohexyl]-1H-pyrazole-4-carboxamide], the IC50 came to 78 nM.

In the case of `Cc1nc(Oc2cccc(C=C3CCC(NC(=O)c4cnc(N)nc4)CC3)c2)ccc1Cl` (single isomer, unassigned; (+)) [Example 20.A-21, (+)-2-Amino-N-[4-[[3-[(5-chloro-6-methyl-2-pyridyl)oxy]phenyl]methylene]cyclohexyl]pyrimidine-5-carboxamide], the IC50 is 9 nM.

Take `Cc1nc(Oc2cccc(C=C3CCC(NC(=O)c4cnc(N)nc4)CC3)c2)ccc1Cl` (single isomer, unassigned; (-)) [Example 20.A-22, (−)-2-Amino-N-[4-[[3-[(5-chloro-6-methyl-2-pyridyl)oxy]phenyl]methylene]cyclohexyl]pyrimidine-5-carboxamide]: the IC50 was 1.1 nM.

For the molecule `O=C(Nc1cccnn1)C1CCC(=Cc2cccc(Oc3ccc(C(F)(F)F)cn3)c2)CC1` (stereo not shown) [Example 1.A-1, N-Pyridazin-3-yl-4-[[3-[[5-(trifluoromethyl)-2-pyridyl]oxy]phenyl]methylene]cyclohexanecarboxamide], the IC50 stood at 17 nM.

In the case of `O=C(NC1CCC(=Cc2cccc(Oc3ccc(C(F)(F)F)cn3)c2)CC1)c1ccc(O)nc1` (stereo not shown) [Example 2.C-3, 6-Hydroxy-N-[4-[[3-[[5-(trifluoromethyl)-2-pyridyl]oxy]phenyl]methylene]cyclohexyl]pyridine-3-carboxamide], the half-inhibitory concentration (IC50) stood at 19 nM.

Regarding `Nc1ncccc1C(=O)NC1CCC(=Cc2cccc(Oc3ccc(C(F)(F)F)cn3)c2)CC1` (stereo not shown) [Example 2.C-5, 2-Amino-N-[4-[[3-[[5-(trifluoromethyl)-2-pyridyl]oxy]phenyl]methylene]cyclohexyl]pyridine-3-carboxamide], the IC50 was determined as 37 nM.

The same experiment, now with this note: read-out: hFAAH % inhibition at 100 nM; human FAAH; 100 nM (tier I).
Regarding `Cc1[nH]nc(C(F)(F)F)c1C(=O)NC1CCC(=Cc2cccc(Oc3ccc(C(F)(F)F)cn3)c2)CC1` (stereo not shown) [Example 2.A-36, 5-Methyl-3-(trifluoromethyl)-N-[4-[[3-[[5-(trifluoromethyl)-2-pyridyl]oxy]phenyl]methylene]cyclohexyl]-1H-pyrazole-4-carboxamide], the inhibition at 0.1 µM worked out at 50%.

As for `O=C(O)Cn1cc(C(=O)NC2CCC(=Cc3cccc(Oc4ccc(C(F)(F)F)cn4)c3)CC2)cn1` (stereo not shown) [Example 8.A-2, 2-[4-[[4-[[3-[[5-(Trifluoromethyl)-2-pyridyl]oxy]phenyl]methylene]cyclohexyl]carbamoyl]pyrazol-1-yl]acetic acid], the inhibition at 0.1 µM was 40%.

The same experiment, now with this note: read-out: hFAAH IC50.
For the molecule `Nc1ccc(C(=O)NC2CCC(=Cc3cccc(Oc4ccc(C(F)(F)F)cn4)c3)CC2)cn1` (single isomer, unassigned; (+)) [Example 20.A-3, (+)-6-Amino-N-[4-[[3-[[5-(trifluoromethyl)-2-pyridyl]oxy]phenyl]methylene]cyclohexyl]pyridine-3-carboxamide], the IC50 is 361 nM.

`O=C(NC1CCC(=Cc2cccc(Oc3ccc(C(F)(F)F)cn3)c2)CC1)c1c[nH]nc1C(F)(F)F` (single isomer, unassigned; (+)) [Example 20.A-7, (+)-3-(Trifluoromethyl)-N-[4-[[3-[[5-(trifluoromethyl)-2-pyridyl]oxy]phenyl]methylene]cyclohexyl]-1H-pyrazole-4-carboxamide]: the IC50 is 67 nM.

Consider `Nc1ncc(C(=O)NC2CCC(=Cc3cccc(Oc4ccc(C(F)(F)F)cn4)c3)CC2)cn1` (single isomer, unassigned; (+)) [Example 20.A-9], for which the IC50 was 40 nM.

Regarding `O=C(NC1CCC(=Cc2cccc(Oc3ccc(C(F)(F)F)cn3)c2)CC1)c1cnc2[nH]ccc2c1` (single isomer, unassigned; (+)) [Example 20.A-13, (+)-N-[4-[[3-[[5-(trifluoromethyl)-2-pyridyl]oxy]phenyl]methylene]cyclohexyl]-1H-pyrrolo[2,3-b]pyridine-5-carboxamide], the IC50 stood at 55 nM.

With `O=C(NC1CCC(=Cc2cccc(Oc3ccc(C(F)(F)F)cn3)c2)CC1)c1cncnc1` (single isomer, unassigned; (+)) [Example 20.A-19, (+)-N-[4-[[3-[[5-(trifluoromethyl)-2-pyridyl]oxy]phenyl]methylene]cyclohexyl]pyrimidine-5-carboxamide], the IC50 was found to be 14.3 nM.

As to `O=C(NC1CCC(=Cc2cccc(Oc3ccc(C(F)(F)F)cn3)c2)CC1)c1cncnc1` (single isomer, unassigned; (-)) [Example 20.A-20, (−)-N-[4-[[3-[[5-(Trifluoromethyl)-2-pyridyl]oxy]phenyl]methylene]cyclohexyl]pyrimidine-5-carboxamide], the IC50 was determined as 0.8 nM.

The values are drawn from US9682953B2, “Amide compounds, compositions and applications thereof” (Advinus Therapeutics Limited, priority 2011, dated 2017).
